Source: publication PMC11909324 (Journal of the Science of Food and Agriculture, 2024)

Assays:
xanthine oxidase (XO) [1] = biological target: T1, xanthine oxidase (XO) (Bos taurus, UniProt P80457); test: XO assay with 6MP as substrate (6-thiouric acid formation, HPLC-UV); assay type: biochemical, bovine; settings: inhibitor 20 μmol L^−1; 6MP 5 μmol L^−1;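 further: incubation in 0.05 mol L^−1 sodium phosphate buffer, with 6MP and 6-thiouric acid quantified by HPLC-UV and conversion taken as the product share of substrate plus product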
T1 construct: XO (from bovine milk); purchased Merck (Darmstadt, Germany); host or cells: bovine milk (natural source)
T1 sequence (P80457 whole entry): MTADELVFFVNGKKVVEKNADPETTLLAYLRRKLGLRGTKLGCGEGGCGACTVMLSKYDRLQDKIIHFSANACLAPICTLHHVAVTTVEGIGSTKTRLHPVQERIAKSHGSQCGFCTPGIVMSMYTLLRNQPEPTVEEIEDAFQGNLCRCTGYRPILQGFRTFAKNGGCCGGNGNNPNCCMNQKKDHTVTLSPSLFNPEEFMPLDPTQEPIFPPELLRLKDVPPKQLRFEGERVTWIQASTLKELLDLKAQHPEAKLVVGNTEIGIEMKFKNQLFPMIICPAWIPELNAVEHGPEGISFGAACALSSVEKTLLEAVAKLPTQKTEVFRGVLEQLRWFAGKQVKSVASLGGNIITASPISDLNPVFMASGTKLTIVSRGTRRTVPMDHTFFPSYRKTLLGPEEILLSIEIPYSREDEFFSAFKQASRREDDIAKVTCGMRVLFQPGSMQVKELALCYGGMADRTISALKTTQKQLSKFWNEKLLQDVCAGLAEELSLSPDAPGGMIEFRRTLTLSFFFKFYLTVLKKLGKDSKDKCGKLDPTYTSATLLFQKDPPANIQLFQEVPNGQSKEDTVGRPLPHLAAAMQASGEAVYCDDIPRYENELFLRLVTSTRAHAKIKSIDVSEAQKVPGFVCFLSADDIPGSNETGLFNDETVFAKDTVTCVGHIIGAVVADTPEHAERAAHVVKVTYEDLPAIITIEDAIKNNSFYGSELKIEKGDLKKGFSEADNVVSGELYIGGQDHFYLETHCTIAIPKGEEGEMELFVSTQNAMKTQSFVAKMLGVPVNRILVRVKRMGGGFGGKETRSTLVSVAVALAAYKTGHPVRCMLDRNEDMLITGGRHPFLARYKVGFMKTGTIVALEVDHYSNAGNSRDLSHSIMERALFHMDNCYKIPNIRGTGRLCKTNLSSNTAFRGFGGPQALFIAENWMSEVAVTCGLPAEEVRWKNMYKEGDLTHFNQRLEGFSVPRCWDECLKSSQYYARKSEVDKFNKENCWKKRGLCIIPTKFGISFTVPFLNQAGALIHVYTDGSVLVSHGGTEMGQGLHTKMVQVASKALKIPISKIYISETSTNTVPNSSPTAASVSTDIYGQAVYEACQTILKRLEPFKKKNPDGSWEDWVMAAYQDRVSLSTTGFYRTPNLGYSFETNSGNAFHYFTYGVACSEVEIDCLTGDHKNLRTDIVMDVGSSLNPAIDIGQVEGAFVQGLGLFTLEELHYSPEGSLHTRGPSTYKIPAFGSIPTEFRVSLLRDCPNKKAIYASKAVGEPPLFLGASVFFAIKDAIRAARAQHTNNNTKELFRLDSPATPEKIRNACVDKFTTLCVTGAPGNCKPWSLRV

[2] = cited from earlier work
xanthine oxidase (XO) [3] = biological target: T1, xanthine oxidase (XO); test: XO assay with xanthine as substrate (uric acid formation, HPLC-UV); assay type: biochemical, bovine; settings: inhibitor 20 μmol L^−1; xanthine 5 μmol L^−1; read-out: decrease in uric acid production (inhibition of XO-catalyzed xanthine oxidation);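 further: incubations in 0.05 mol L^−1 sodium phosphate buffer, with uric acid and remaining xanthine both quantified by HPLC-UV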
[4] = humans; peroral high doses (0.5–5.0 g) of RES; cited from earlier work

Compound | decrease in 6-thiouric acid formation (inhibition of XO-catalyzed 6MP oxidation) (xanthine oxidase (XO) [1]) | oral bioavailability [2] | inhibition at 20 µM (xanthine oxidase (XO) [3]) [%] | peak plasma concentrations [4] [µmol/L]
Oc1ccc(/C=C/c2cc(O)cc(O)c2)cc1 [RES, resveratrol] | weak to moderate inhibitors | less than 1% |  | 
O=S(=O)(O)Oc1cc(O)cc(C=Cc2ccc(O)cc2)c1 [R3S, resveratrol‐3‐sulfate] | weak to moderate inhibitors |  | 27 | 10 to 20
